Data from patent publication US12018059B2, “Human amylin analog polypeptides and methods of use” (Intarcia Therapeutics, Inc., priority 2018, dated 2024).
Starred links: 1 amine or outer side, 2 acyl side, 3 side chain; linkers in the order of their positions; H or OH if unused. Positions of bridges follow the written chain, without caps; N, C: chain ends. Non-standard residues stand in square brackets, D forms with d. Residues, ends and D or L forms follow the SMILES beside them. Groups on a side chain read outwards from the residue. *: point of attachment. γGlu = O=C(O)[C@H](CCC(=O)[*:2])N[*:1]; Palmitoyl = CCCCCCCCCCCCCCCC(=O)*; X5 = O=C(O)CCCCCCCCCCCC(=O)*; AEEA = NCCOCCOCC(=O)O

assay: in vivo; design: species or system Sprague-Dawley rats; conditions: rat, iv, 0.033 mg/kg
Description: Peptides were dissolved in sterile saline and administered as a 1-hour intravenous infusion to non-fasted male Sprague-Dawley rats (n=3 per group) via femoral vein cannula at a final dose of 0.033 mg/kg. […] Blood samples (approximately 250 μL) were collected for pharmacokinetic analysis via a jugular vein cannula at 0.25, 0.5, 0.75, 1, 1.17, 1.33, 1.5, 2, 4, 6, 8, 24, 30 and 48 hr post-start of infusion into microtainer tubes containing K2EDTA as anticoagulant and 25 μL of a protease inhibitor cocktail. Plasma was prepared by centrifugation and stored at −80° C. until analysis. The results of this analysis are shown in Table 9 and few exemplars in FIGS. 3a-3b. […]
A 60 μL aliquot of each plasma sample was placed into to a 96-well plate. To each well was added 6 μL of 0.5% Tween-20. Plates were then vortexed mixed for 10 minutes at 1200 rpm before 180 μL of 0.1% TFA in 2:1 ethanol:acetonitrile containing an appropriate internal standard was added to each well. Plates were vortex mixed for 5 min at 1300 rpm, and then centrifuged for 10 min at 2844×g. Supernatants (180 μL) were placed into a clean 96-well plate and evaporated under a nitrogen stream at 45° C. Residues were reconstituted in 80 μL of 20% acetonitrile (aq) containing 0.1% formic acid.
A […] aliquot of each plasma sample was diluted with […] of 10 mM ammonium acetate (pH 6.8) containing an appropriate internal standard and loaded onto an Oasis WCX microElution plate (Waters Corporation, Milford, MA) that had been pre-conditioned with […] of methanol and […] of deionized water. Samples were washed with […] of 5% ammonium hydroxide (aq) followed by […] of 20% acetonitrile in water. The analyte was eluted with […] of 5% formic acid in 75:25 acetonitrile:water. The eluent was dried under a nitrogen stream. Residues were reconstituted in 80 μL of 20% acetonitrile (aq) containing 0.1% formic acid.
All calibration standards were prepared in control rat plasma containing K2EDTA and protease inhibitor cocktail.
Samples and standards were analyzed by TurbolonSpray™ UPLC-MS/MS using a system consisting of a CTC HTS PAL auto-injector (Leap, Carrboro, NC), an Agilent Infinity 1290 system with column oven (Palo Alto, CA), a Valco switching valve (Houston, TX), and either an AB Sciex API 5600 TripleTOF™ or Sciex API 4000QTrap mass spectrometer (Framingham, MA). Samples were injected onto a 2.1×50 mm reverse phase C18 analytical column, typically a Waters CORTECS UPLC C18+, 1.6 μm (Waters Corporation, Milford, MA) or similar. […] Initial conditions consisted of 90% A and 10% B. The organic component was increased to 95% B over a period of 3-4 minutes, depending on the peptide. Typical flow rates were 600 μL/min. The column temperature was held constant at 40 or 50° C. Peptides were quantified by monitoring one or more product ions produced from a multiply charged parent ion.

Row | SMILES | Vd [L/kg] | clearance [mL/min/kg] | half-life [h]
1 | CCCCCCCCCCCCCCCC(=O)N[C@@H](CCC(=O)N[C@@H](CCC(=O)N[C@@H](CCC(=O)N[C@@H](CCC(=O)NCCCC[C@H](NC(=O)[C@H](CCC(=O)O)NC(=O)[C@H](CC(N)=O)NC(=O)[C@H](C)NC(=O)[C@H](CC(C)C)NC(=O)[C@H](CCCNC(=N)N)NC(=O)[C@H](CCC(N)=O)NC(=O)[C@@H](NC(=O)[C@H](C)NC(=O)[C@@H]1CSSC[C@H](NC(=O)[C@@H](N)CO)C(=O)N[C@@H](CC(N)=O)C(=O)N[C@@H]([C@@H](C)O)C(=O)N[C@@H](CO)C(=O)N[C@@H]([C@@H](C)O)C(=O)N1)[C@@H](C)O)C(=O)N[C@@H](Cc1c[nH]cn1)C(=O)N[C@@H](CCCCN)C(=O)N[C@@H](CO)C(=O)N[C@@H](CO)C(=O)N[C@@H](CC(N)=O)C(=O)N[C@@H](CC(N)=O)C(=O)N[C@@H](Cc1ccccc1)C(=O)NCC(=O)N1CCC[C@H]1C(=O)N[C@H](C(=O)N[C@@H](CC(C)C)C(=O)N1CCC[C@H]1C(=O)N1CCC[C@H]1C(=O)N[C@H](C(=O)N[C@@H](CCCCN)C(=O)N[C@H](C(=O)NCC(=O)N[C@@H](CO)C(=O)N[C@@H](CCC(=O)O)C(=O)N[C@H](C(=O)N[C@@H](Cc1ccc(O)cc1)C(N)=O)[C@@H](C)O)C(C)C)[C@@H](C)O)[C@@H](C)CC)C(=O)O)C(=O)O)C(=O)O)C(=O)O [Compound A21] (H-SCNTSTCATQRLANEK([γGlu-γGlu-γGlu-γGlu-Palmitoyl])HKSSNNFGPILPPTKVGSETY-NH2; disulfide 2-7) | 0.131 | 0.178 | 10.4
2 | CCCCCCCCCCCCCCCC(=O)N[C@@H](CCC(=O)NCCOCCOCC(=O)NCCOCCOCC(=O)N[C@@H](CCC(=O)NCCCC[C@@H](NC(=O)[C@H](CCC(=O)O)NC(=O)[C@H](CC(N)=O)NC(=O)[C@H](C)NC(=O)[C@H](CC(C)C)NC(=O)[C@H](CCCNC(=N)N)NC(=O)[C@H](CCC(N)=O)NC(=O)[C@@H](NC(=O)[C@H](C)NC(=O)[C@@H]1CSSC[C@H](NC(=O)[C@@H](N)CO)C(=O)N[C@@H](CC(N)=O)C(=O)N[C@@H]([C@@H](C)O)C(=O)N[C@@H](CO)C(=O)N[C@@H]([C@@H](C)O)C(=O)N1)[C@@H](C)O)C(=O)N[C@@H](Cc1c[nH]cn1)C(=O)N[C@@H](CCCCN)C(=O)N[C@@H](CO)C(=O)N[C@@H](CO)C(=O)N[C@@H](CC(N)=O)C(=O)N[C@@H](CC(N)=O)C(=O)N[C@@H](Cc1ccccc1)C(=O)NCC(=O)N1CCC[C@H]1C(=O)N[C@H](C(=O)N[C@@H](CC(C)C)C(=O)N1CCC[C@H]1C(=O)N1CCC[C@H]1C(=O)N[C@H](C(=O)N[C@@H](CCCCN)C(=O)N[C@H](C(=O)NCC(=O)N[C@@H](CO)C(=O)N[C@@H](CCC(=O)O)C(=O)N[C@H](C(=O)N[C@@H](Cc1ccc(O)cc1)C(N)=O)[C@@H](C)O)C(C)C)[C@@H](C)O)[C@@H](C)CC)C(=O)O)C(=O)O [Compound A25] (H-SCNTSTCATQRLANE[dK]([γGlu-AEEA-AEEA-γGlu-Palmitoyl])HKSSNNFGPILPPTKVGSETY-NH2; disulfide 2-7; N-terminus assumed) | 0.249 | 0.788 | 4.97
3 | CCCCCCCCCCCCCCCC(=O)N[C@@H](CCC(=O)N[C@@H](CCC(=O)NCCCC[C@@H](NC(=O)[C@H](CCC(=O)O)NC(=O)[C@H](CCC(N)=O)NC(=O)[C@H](C)NC(=O)[C@H](CC(C)C)NC(=O)[C@H](CCCNC(=N)N)NC(=O)[C@H](CCC(N)=O)NC(=O)[C@@H](NC(=O)[C@H](C)NC(=O)[C@@H]1CSSC[C@H](NC(=O)[C@@H](N)CO)C(=O)N[C@@H](CC(N)=O)C(=O)N[C@@H]([C@@H](C)O)C(=O)N[C@@H](CO)C(=O)N[C@@H]([C@@H](C)O)C(=O)N1)[C@@H](C)O)C(=O)N[C@@H](Cc1c[nH]cn1)C(=O)N[C@@H](CCCCN)C(=O)N[C@@H](CO)C(=O)N[C@@H](CO)C(=O)N[C@@H](CC(N)=O)C(=O)N[C@@H](CC(N)=O)C(=O)N[C@@H](Cc1ccccc1)C(=O)NCC(=O)N1CCC[C@H]1C(=O)N[C@H](C(=O)N[C@@H](CC(C)C)C(=O)N1CCC[C@H]1C(=O)N1CCC[C@H]1C(=O)N[C@H](C(=O)N[C@@H](CCCCN)C(=O)N[C@H](C(=O)NCC(=O)N[C@@H](CO)C(=O)N[C@@H](CCC(=O)O)C(=O)N[C@H](C(=O)N[C@@H](Cc1ccc(O)cc1)C(N)=O)[C@@H](C)O)C(C)C)[C@@H](C)O)[C@@H](C)CC)C(=O)O)C(=O)O [Compound A28] (H-SCNTSTCATQRLAQE[dK]([γGlu-γGlu-Palmitoyl])HKSSNNFGPILPPTKVGSETY-NH2; disulfide 2-7) | 0.17 | 0.485 | 5.41
4 | CC[C@H](C)[C@H](NC(=O)[C@@H]1CCCN1C(=O)CNC(=O)[C@H](Cc1ccccc1)NC(=O)[C@H](CC(N)=O)NC(=O)[C@H](CC(N)=O)NC(=O)[C@H](CO)NC(=O)[C@H](CO)NC(=O)[C@H](CCCCN)NC(=O)[C@H](Cc1c[nH]cn1)NC(=O)[C@H](CC(C)C)NC(=O)[C@H](CCCCNC(=O)CCCCCCCCCCCC(=O)O)NC(=O)[C@H](CC(N)=O)NC(=O)[C@H](C)NC(=O)[C@H](CC(C)C)NC(=O)[C@H](CCCNC(=N)N)NC(=O)[C@H](CCC(N)=O)NC(=O)[C@@H](NC(=O)[C@H](C)NC(=O)[C@@H]1CSSC[C@H](NC(=O)[C@@H](N)CO)C(=O)N[C@@H](CC(N)=O)C(=O)N[C@@H]([C@@H](C)O)C(=O)N[C@@H](CO)C(=O)N[C@@H]([C@@H](C)O)C(=O)N1)[C@@H](C)O)C(=O)N[C@@H](CC(C)C)C(=O)N1CCC[C@H]1C(=O)N1CCC[C@H]1C(=O)N[C@H](C(=O)N[C@@H](CCCCN)C(=O)N[C@H](C(=O)NCC(=O)N[C@@H](CO)C(=O)N[C@@H](CCC(=O)O)C(=O)N[C@H](C(=O)N[C@@H](Cc1ccc(O)cc1)C(N)=O)[C@@H](C)O)C(C)C)[C@@H](C)O [Compound A31] (H-SCNTSTCATQRLANK(X5)LHKSSNNFGPILPPTKVGSETY-NH2; disulfide 2-7) | 0.57 | 18.9 | 0.404
5 | CCCCCCCCCCCCCCCC(=O)N[C@@H](CCC(=O)NCCCC[C@@H](NC(=O)[C@H](CCC(=O)O)NC(=O)[C@H](CC(N)=O)NC(=O)[C@H](C)NC(=O)[C@H](CC(C)C)NC(=O)[C@H](CCCNC(=N)N)NC(=O)[C@H](CCC(N)=O)NC(=O)[C@@H](NC(=O)[C@H](C)NC(=O)[C@@H]1CSSC[C@H](NC(=O)[C@@H](N)CO)C(=O)N[C@@H](CC(N)=O)C(=O)N[C@@H]([C@@H](C)O)C(=O)N[C@@H](CO)C(=O)N[C@@H]([C@@H](C)O)C(=O)N1)[C@@H](C)O)C(=O)N[C@@H](Cc1c[nH]cn1)C(=O)N[C@@H](CCCCN)C(=O)N[C@@H](CO)C(=O)N[C@@H](CO)C(=O)N[C@@H](CC(N)=O)C(=O)N[C@@H](CC(N)=O)C(=O)N[C@@H](Cc1ccccc1)C(=O)NCC(=O)N1CCC[C@H]1C(=O)N[C@H](C(=O)N[C@@H](CC(C)C)C(=O)N1CCC[C@H]1C(=O)N1CCC[C@H]1C(=O)N[C@H](C(=O)N[C@@H](CCCCN)C(=O)N[C@H](C(=O)NCC(=O)N[C@@H](CO)C(=O)N[C@@H](CCC(=O)O)C(=O)N[C@H](C(=O)N[C@@H](Cc1ccc(O)cc1)C(N)=O)[C@@H](C)O)C(C)C)[C@@H](C)O)[C@@H](C)CC)C(=O)O [Compound A36] (H-SCNTSTCATQRLANE[dK]([γGlu-Palmitoyl])HKSSNNFGPILPPTKVGSETY-NH2; disulfide 2-7) | 0.244 | 3.93 | 1.32
